Key:
ROR1 kinase domain = molecular target: T1, ROR1 kinase domain (Homo sapiens, UniProt Q01973); test: SPR assay on ROR1 kinase domain; assay type: binding; settings: SPR, KD ± SD, 0 to 100 μM, 25 °C; n.b. = no binding; read-out: Kinase domain KD
T1 construct: recombinant human ROR1 protein (aa 453‐783, His&GST Tag); His; GST; purchased Elabscience
T1 sequence (Q01973 453-783): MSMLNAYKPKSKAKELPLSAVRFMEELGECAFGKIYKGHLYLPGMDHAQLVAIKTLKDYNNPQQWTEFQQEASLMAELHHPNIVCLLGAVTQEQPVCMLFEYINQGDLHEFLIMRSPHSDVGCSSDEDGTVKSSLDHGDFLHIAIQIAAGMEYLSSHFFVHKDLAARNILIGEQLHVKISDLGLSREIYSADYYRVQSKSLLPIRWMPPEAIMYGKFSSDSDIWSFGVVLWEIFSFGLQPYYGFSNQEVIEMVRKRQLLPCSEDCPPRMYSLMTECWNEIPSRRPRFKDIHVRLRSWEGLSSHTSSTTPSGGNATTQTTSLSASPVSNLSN
Procedure: We performed molecular docking experiments to explore the binding mode of novel derivatives using the crystallographic structure of the protein co‐complexed with ponatinib, a known inhibitor of ROR1 (PDB code: 6TU9).^[ [30] ^] […] To evaluate the affinity of the synthesized molecules (10, 13, 14, 17–21, 26–29) for the protein counterpart, SPR assay was performed against kinase domain ROR1. Protein immobilization was achieved using the amide coupling method, and the molecules were tested at 10 different concentrations, ranging from 0 to 100 μM. Ponatinib was used as a positive control^[ [30] ^] (Table 1 ).
SPR spectroscopy analyses were conducted to evaluate the binding affinity of the synthesized compounds against ROR1 receptor using a Biacore T200 optical biosensor equipped with research‐grade CM5 sensor chips (Cytiva, Marlborough, USA). ROR1 kinase domain was immobilized on the CM5 sensor chip surface following standard amine‐coupling protocols. Specifically, kinasic domain was immobilized at pH 4.5 10 mM CH3COONa using a flow rate of 10 μL min^−1, achieving a density of around 20 kRU.
For the experiments, surfaces of ROR1, along with an unmodified reference surface, were prepared for simultaneous analyses. […] The compounds were injected in a series of concentrations (1:2 dilution, 10 different concentrations), spanning from 0 to 100 μM. The concentration series were prepared in 96‐well plates. SPR experiments were conducted at 25 °C, with a flow rate of 20 μL min^−1, allowing for 90 s of association monitoring and 400 s of dissociation monitoring. Changes in mass, reflective of the binding response, were recorded as resonance units (RU). K D values were determined using the Biaevaluation software performing a global fit of the double‐referenced association and dissociation data to a 1:1 interaction model^[ [43] ^] (see Figure S38, Supporting Information).

JeKo‐1 cells = test: Annexin V‐FITC/PI staining apoptosis, flow cytometry; assay type: cell-based, human; settings: JeKo‐1, 20 μM, 72 h, early and late apoptosis
Description: This observation aligns with previous studies reporting that ROR1 is highly expressed in B‐cell malignancies, including mantle cell lymphoma, where it plays a crucial role in survival signaling and resistance to apoptosis.^[ [10], [32] ^] Given the higher susceptibility of JeKo‐1 cells to the inhibitor, we selected this model for further apoptotic analysis. However, for completeness, apoptotic data for the SH‐SY5Y cell line are also provided in the Supporting Information (Figure S39, Supporting Information). Specifically, cells were incubated with compounds 17, 20, or 29 (20 μM) for 72 h and a flow cytometry analysis using Annexin V/PI staining was performed. After treatment, a very strong increase in the apoptotic response was observed, in both early and late apoptotic populations compared to the negative control (Figure 4 ). […] These findings are in accordance with the literature and further support the potential of ROR1 inhibition in promoting cell death in mantle cell lymphoma.^[ [33] ^]
Figure 4 Proapoptotic activity of compounds 17, 20, and 29 (20 μM) on JeKo‐1 cells treated for 72 h. A) Representative flow cytometry plots using Annexin V‐FITC/PI staining for apoptosis. B) Related quantitative analysis is reported. Data are expressed as a percentage of live, apoptotic, and necrotic cells. Results are shown as mean ± standard deviation (SD) from three independent experiments. *** denote p < 0.001 versus Ctrl.
Apoptosis of the cells was assessed using annexin V‐FITC/PI reagents. JeKo‐1 cells (60 × 10^3 cells/well) were seeded into 24‐well plates and incubated for 72 h with compounds (20 and 10 μM). After treatment, the collected cells were resuspended in a 100 μL assay buffer, then 5 Annexin V‐FITC and 1 PI reagents were added following incubation for 20 min at room temperature according to the manufacturer's protocol (Dead Cell Apoptosis Kits with Annexin V for Flow Cytometry, Thermo Fisher Scientific). Cells were analyzed with a Becton Dickinson FACScan flow cytometer using the Cell Quest software, version 4 (Franklin Lakes, NJ, USA).^[ [46] ^]

[1] = Plasma protein binding, rapid equilibrium dialysis; assay type: in vitro ADME; settings: 37 °C, read-out: drug bound to plasma proteins
Description: Plasma protein binding plays a crucial role in drug distribution and biological activity. After absorption into systemic circulation, drug molecules may bind to plasma proteins, and the bound drug cannot cross biological membranes, rendering it unavailable to exert a pharmacological effect. Only the free drug, unbound to plasma proteins, is pharmacologically active.
A Rapid Equilibrium Dialysis Plate (Pierce™ RED, Thermo Scientific) was used to determine the percentage of compound binding to plasma proteins. Potassium phosphate buffer was added to each white well, and plasma/compound (1 μM) mixture was added to the red wells. The plate was sealed and incubated at 37 °C on an orbital shaker at 300 rpm for 4 h. Afterward, 50 μL of post‐dialysis samples from the buffer and plasma chambers were transferred into separate microcentrifuge tubes. An equal volume of plasma was added to the buffer sample, while the plasma sample received an equivalent volume of buffer. Precooled IS was added to the assay plate to quench the reaction. Compounds were quantified by LC‐MS/MS. The percentage of free and bound compound was calculated using the following equations: % free = (concentration in buffer chamber/concentration in plasma chamber) × 100, and % bound = 100 − % free.^[ [48] ^] All experiments were performed in duplicate. Propranolol was used as positive control.

O=C(NCc1ccc(-c2ccccc2)cc1)Nc1ccc(NCC2CCNCC2)cc1C(F)(F)F [Compound 17]
Kd (ROR1 kinase domain): 12.1 ± 2.68 µM | apoptotic cells (JeKo‐1 cells): 89.02 ± 3.12% | fraction unbound at 4 h, 1 μM [1]: 0.01

— article PMC12276035, “Novel Para‐Phenylenediamine‐Based Derivatives as Receptor Tyrosine Kinase‐like Orphan Receptor 1 (ROR1) Inhibitors: An In Vitro Preliminary Characterization” (Chemmedchem, 2025)
